Converted amounts (≈) assume the structure as drawn.
tested on: HIV; assay: Inhibition of HIV replication in HIV infected human T-lymphoma cells or human fetal lung cells; amount of virus determined by new infection of human fetal lung cells; assay type: cell-based; details: Human immunodeficiency virus 1, readout: new infection of human fetal lung cells, read-out: IC50-value (concentration which results in an inhibition of the replication of 50%)
Method: HIV infected human T-lymphoma cells or human fetal lung cells were treated with the inventive compound by using different concentration ranges of the test compound. The amount of the viruses was then determined by way of new infection of human fetal lung cells. The decrease of the resulting positive HIV-infected cells was regarded as a measure for the antiviral activity of the compound tested.
The following table gives the corresponding concentration, which results in an inhibition of the replication of 50% (IC50 -value): […]

For `CCCCCCCCCCCCSCC(CSCCCCCCCCCCCC)OP(=O)([O-])OCC[N+](C)(C)C` [Example 20, 1,3-Bis-(dodecylmercapto)-propyl-1-phosphoric acid monocholine ester], which IC50 is on record?
The IC50 was 4 µg/mL (≈ 6.39 µM).

Which IC50 does the source give for `CCCCCCCCCCCOC(COP(=O)([O-])OCC[N+](C)(C)C)C[S+]([O-])CCCCCCCCCCC` (stereo not shown) [Example 24, 3-Undecylsulphinyl-2-undecyloxypropyl-1-phosphoric acid monocholine ester] here?
Its IC50 is 4 µg/mL (≈ 6.69 µM).

With `CCCCCCCCCCCCOC(COP(=O)([O-])OCC[N+](C)(C)C)CS(=O)(=O)CCCCCCCCCC` (stereo not shown) [Example 9, 3-Decylsulphonyl-2-dodecyloxypropyl-1-phosphoric acid monocholine ester] as the molecule, how does the IC50 read?
Its IC50 is 2 µg/mL (≈ 3.26 µM).

Which IC50 does the source give for `CCCCCCCCCCCCCCCCSCC(COP(=O)([O-])OCC[N+](C)(C)C)OCCCCCCCCCC` (stereo not shown) [Example 5, 3-Hexadecylmercapto-2-decyloxypropyl-1-phosphoric acid monocholine ester] here?
The IC50 was 20 µg/mL (≈ 31.3 µM).

With `CCCCCCCCCCCCC[S+]([O-])CC(COP(=O)([O-])OCC[N+](C)(C)C)OCCCCCCCCCC` (stereo not shown) [Example 25, 3-Tridecylsulphinyl-2-decyloxypropyl-1-phosphoric acid monocholine ester] as the molecule, how does the IC50 read?
Its IC50 is 2 µg/mL (≈ 3.27 µM).

For `CCCCCCCCCCCC[S+]([O-])CC(COP(=O)([O-])OCC[N+](C)(C)C)OCCCCCCCCCC` (stereo not shown) [Example 22, 3-Dodecylsulphinyl-2-decyloxypropyl-1-phosphoric acid monocholine ester], which IC50 is on record?
Its IC50 is 4 µg/mL (≈ 6.69 µM).

With `CCCCCCCCCCCCCCCCOC(COP(=O)([O-])OCC[N+](C)(C)C)CSCCCCCCCCCC` (stereo not shown) [Example 6, 3-Decylmercapto-2-hexadecyloxypropyl-1-phosphoric acid monocholine ester] as the molecule, how does the IC50 read?
The IC50 was 50 µg/mL (≈ 78.4 µM).

With `CCCCCCCCCCCSCC(COP(=O)([O-])OCC[N+](C)(C)C)OCCCCCCCCCC` (stereo not shown) [Example 11, 3-Undecylmercapto-2-decyloxypropyl-1-phosphoric acid monocholine ester] as the molecule, how does the IC50 read?
The IC50 was 20 µg/mL (≈ 35.2 µM).

With `CCCCCCCCCCCCS(=O)(=O)CC(COP(=O)([O-])OCC[N+](C)(C)C)OCCCCCCCCCC` (stereo not shown) [Example 8, 3-Dodecylsulphonyl-2-decyloxypropyl-1-phosphoric acid monocholine ester] as the molecule, how does the IC50 read?
Its IC50 is 2 µg/mL (≈ 3.26 µM).

Which IC50 does the source give for `CCCCCCCCCCCCCCSCC(COP(=O)([O-])OCC[N+](C)(C)C)OCCCCCCCCCC` (stereo not shown) [Example 13, 3-Tetradecylmercapto-2-decyloxypropyl-1-phosphoric acid monocholine ester] here?
The IC50 was 4 µg/mL (≈ 6.56 µM).

Which IC50 does the source give for `CCCCCCCCCCCCOC(COP(=O)([O-])OCC[N+](C)(C)C)CSCCCCCCCCCCCC` (stereo not shown) [Example 4, 3-Dodecylmercapto-2-dodecyloxypropyl-1-phosphoric acid monocholine ester] here?
Its IC50 is 4 µg/mL (≈ 6.56 µM).

With `CCCCCCCCCCCCSCC(COP(=O)([O-])OCC[N+](C)(C)C)NC(=O)CCCCCCCCCC` (stereo not shown) [Example 21, 3-Dodecylmercapto-2-decylcarbonylaminopropyl-1-phosphoric acid monocholine ester] as the molecule, how does the IC50 read?
Its IC50 is 5 µg/mL (≈ 8.21 µM).

tested on: not given; assay: not given; details: M. S. Hirsch, J. Infect. Dis., 157, 427-431/1988; cited from earlier work

Which “toxicities in the therapeutic range” value does the source give for `Cc1cn([C@H]2C[C@H](N=[N+]=[N-])[C@@H](CO)O2)c(=O)[nH]c1=O` [AZT, 3'-azido-3'deoxythymidine] here?
The value was “very severe toxicities occurring even in the therapeutic range”.

Source: patent US5158942A, “Process of using phospholipid derivatives to inhibit multiplication of the human immunodeficiency virus” (Boehringer Mannheim GmbH, priority 1989, dated 1992)
